Source: US20240058363A1 (Emyria, priority 2020, published 2024)
Marks after values point to notes of the source that are not given here.

What was measured:
symptoms of depression = experiment: DASS-21 depression score in patients treated with CBD only (clinical data registry); assay type: in vivo, human; settings: for DASS-21 Depression Score, Post 1-month follow-up Mean (Std. dev): mean days of treatment 47 (+/−23)
Excerpt: Detailed demographic information and validated standardised questionnaires were collected as part of routine care. Written informed consent to treatment was obtained from all patients, as well as additional consent to participate in Emyria's clinical data registry, data from participating patients were anonymised, aggregated, and analysed to establish clinical efficacy.
Clinically validated tools were used to monitor patients for management of symptoms, quality of life, physical/emotional functioning, and concomitant medication usage. Patients were asked about their cannabis history and initially pre-screened for any illicit cannabis use before commencing on medicinal cannabis treatment using the Cannabis Use Disorder Identification Test (CUDIT), a urine screen was performed to confirm negative result for cannabis in their urine before they commence treatment. After they commenced on medicinal cannabis treatment they were initially treated with low doses and monitored for safety and efficacy of treatment before dose escalation is considered.
Patients are excluded from treatment with medicinal cannabis if they: were pregnant or breast-feeding; have untreated heart disease, heart failure or arrhythmia; a history of severe psychiatric disorders; active suicidal ideation; a history of dependence on cannabis; a history of dependence or abuse of psychoactive substances; detectable urinary THC before commencement of medicinal cannabis.
A potentially eligible individual who met any of the following criteria will be excluded from participation if the following criteria is met: • 1. Clinically recorded cannabis drug addiction, or cannabis use disorder including individuals with scores 8 or more on the Cannabis Use Disorder Identification Test (CUDIT). • 2. Untreated cardiovascular disease, arrhythmias (other than well controlled atrial fibrillation), or severe heart failure. • 3. History of suicide attempts or suicidal ideation. • 4. History of psychotic episode, schizophrenia or other psychotic disorders.
Patients were assessed monthly by the clinical team (doctor and nurse) and a visit schedule protocol was followed for each patient. A full medical history was conducted at the initial visit, including a detailed history of the clinical indication (including duration symptoms), comorbidities mental and cardiac health conditions, previous procedures, medications and therapies tried. Patients were reviewed as per the Schedule of Assessments (FIG. 2). Cannabinoid dose and Adverse events were also recorded at each visit after treatment began and categorised as mild (no product change indicated), moderate (product change indicated), severe (product cessation indicated) or serious (life-threatening/medical emergency).
The doctors treating patients prescribed orally-based medicinal cannabis standardised products as per approval under the Therapeutic Goods Administration (TGA) through the Special Access Scheme (SAS) Category B and Authorised Prescriber (AP) scheme. The prescribing doctor will decide which product type including THC/CBD ratio and CBD only, based on TGA guidance documents (ie for pain THC/CBD type is generally prescribed) [see https://www.tga.gov.au/medicinal-cannabis-guidance-documents], but also will factor in patient's circumstances such as driving (then CBD only prescribed).
Treatment dosing by the prescribing doctor was in accordance with Emyria (Emerald Clinics) experience, well-tolerated with minimal side effects. Doctors reviewed patients after the 14 day (2 week), see the Schedule of Assessments (FIG. 2). Following the 2-week dosing review where a doctor may increase/decrease the dosage or change product type, patients were then seen regularly (generally monthly) as per the Schedule of Assessments (FIG. 2). Patients taking CBD only products were prescribed either oil or capsules. […]

symptoms of insomnia = experiment: Insomnia Severity Index (ISI) score in patients treated with CBD only; assay type: in vivo, human; parameters: key to Change in ISI score, Visit 1 coefficient in model with interaction terms / Change in ISI score between Visit 0 and Visit 1, by initial assessment category / Change in ISI score between Visit 0 and Visit 3 (third follow-up): change in Insomnia Severity Index (7-item self-report) score
Protocol: Insomnia may present as disturbed sleep, inability to get to sleep, inability to stay asleep and/or sleep that leaves the subject tired upon waking. The insomnia may be assessed using the Insomnia Severity Index (ISI) 7-item self-report questionnaire. […] More importantly perhaps, this global measure has been employed in number of recent clinical trials to assess the responses in insomnia to a wide variety of treatments.
Patients were assessed for inclusion/exclusion using the same screening criteria and population criteria collected for evaluation as in Example 1. Dosing regimens were the same as Example 1.
Column (1) first presents results from a pooled specification with a time specific dummy variable capturing the first follow-up visit (i.e., Visit 1) as the sole explanatory variable. […] Notice that the constant term (i.e., the intercept) reflects the average ISI score of 14.145 at baseline.
Column (2) then incorporates patient-fixed effects. Note that when including fixed effects at the person level, the constant term is dropped from the regression, as it is differenced out by the fixed effects estimator—in addition to any other (un)observable time-invariant individual characteristics which may influence ISI scores (such as personality traits or beliefs). As for our coefficient of interest, it continues to emerge as negative and statistically significant. In fact, it remains virtually unchanged from column (1) since the pooled data contains exactly two observations for each patient.
Finally, column (3) introduces interaction terms between the time dummy variable and binary indicators of starting with an ISI score in the ‘subthreshold insomnia’, ‘clinical insomnia (moderate severity)’, or ‘clinical insomnia (severe)’ category at baseline. The reference category here is determined by patients in the ‘no clinically significant insomnia’ category. Consistent with the visuals from FIG. 1, the reduction in insomnia score at the first follow-up is primarily driven by those who start in the ‘subthreshold insomnia’ category or higher at baseline.
Exploring this issue of persistence further, Table 9 presents regression-equation checks. In particular, column (1) replicates the benchmark results showing the change in […] between baseline and the first follow-up visit. Columns (2) and columns (3) then re-estimate the results between baseline and the second follow-up visit, and baseline and the third follow-up visit respectively.

[1] = average treatment window of slightly under 13 days
[2] = mean treatment horizon of 22 days
[3] = mean treatment period of 7 days

C=C(C)C1CCC(C)=CC1c1c(O)cc(CCCCC)cc1O (stereo not shown) [cannabidiol, 2-[3-methyl-6-(1-methylethenyl)-2-cyclohexen-1-yl]-5-pentyl-1,3-benzenediol]
DASS-21 Depression Score, Post 1-month follow-up Mean (Std. dev) (symptoms of depression; All (n = 146), initial mean 17.4 (9.6), p 0.000): 12.8 (10.0)
DASS-21 Depression Score, Post 1-month follow-up Mean (Std. dev) (symptoms of depression; Mod to extreme (n = 92), initial mean 22.7 (8.0), p 0.000): 16.4 (10.6)
Decrease in depression score (symptoms of depression; [1]): −11.2
DASS-21 Depression Score, Post 1-month follow-up Mean (Std. dev) (symptoms of depression; baseline category Extremely Severe 28+ (n = 28), initial mean 32.9 (5.2), p 0.000): 21.4 (11.6)
DASS-21 Depression Score, Post 1-month follow-up Mean (Std. dev) (symptoms of depression; baseline category Mild 10-13 (n = 29), initial mean 10.9 (1.0), p 0.000): 7.1 (4.6)
DASS-21 Depression Score, Post 1-month follow-up Mean (Std. dev) (symptoms of depression; baseline category Moderate 14-20 (n = 49), initial mean 16.4 (2.2), p 0.002): 12.8 (8.1)
DASS-21 Depression Score, Post 1-month follow-up Mean (Std. dev) (symptoms of depression; baseline category Normal 0-9 (n = 25), initial mean 5.5 (2.3), p 0.543): 6.2 (4.8)
DASS-21 Depression Score, Post 1-month follow-up Mean (Std. dev) (symptoms of depression; baseline category Severe 21-27 (n = 15), initial mean 24.1 (1.6), p 0.089): 18.8 (11.7)
Change in depression score from initial visit to first follow-up versus dosage (FIG. 8) (symptoms of depression; dosage amounts between 50-200 mg per day): correlated with a higher value of change indicating less symptoms of anxiety, stress and/or depression
Fall in depression score (symptoms of depression; [2]): −3.9
Decline in depression score (symptoms of depression; [3]): −17.5
Mean DASS-21 depression score over the first six months (FIG. 15) (symptoms of depression; patients with subthreshold and clinically significant scores at baseline): significant reduction over the 6-month period
Persistence of decrease in insomnia severity (symptoms of insomnia; after 4 and 6 months (Visits 2 and 3) of CBD only treatment): decrease in insomnia severity persists
Decrease in insomnia score (symptoms of insomnia; [1]): −5.0
Fall in insomnia score (symptoms of insomnia; [2]): −4.1
Decline in insomnia score (symptoms of insomnia; [3]): −7.2
Change in ISI score between Visit 0 and Visit 3 (third follow-up) (symptoms of insomnia; patient fixed effects, N 292, baseline mean 14.145, about 6 months, SE 0.854, p < 0.001): −4.313***
Change in ISI score between Visit 0 and Visit 2 (second follow-up) (symptoms of insomnia; patient fixed effects, N 349, baseline mean 14.145, about 4 months, SE 0.581, p < 0.001): −4.141***
Response of ISI score to treatment (symptoms of insomnia; patients beginning in the 'no clinically significant insomnia' category): do not exhibit any meaningful response
Mean ISI scores by baseline ISI category, initial versus first follow-up visit (FIG. 10) (symptoms of insomnia; patients starting with subthreshold, moderate and severe clinical insomnia, mean 46.9 days between visits): significantly lower mean ISI scores in the first follow-up visit
Average ISI scores over the first six months (FIG. 13) (symptoms of insomnia; patients with subthreshold and clinically significant insomnia scores at baseline): significant reduction over the 6-month period
Short-term change in ISI score from baseline to first follow-up (Visit 1 coefficient) (symptoms of insomnia; pooled specification, no patient fixed effects, 228 patients, baseline mean 14.145, average 46.9 days, SE 0.393, p < 0.001): −3.254***
Change in ISI score between visits versus cannabidiol dosage (symptoms of insomnia; prescribed between approximately 10 mg to 200 mg): report less insomnia at the first follow-up visit
Change in ISI score, Visit 1 coefficient in model with interaction terms (symptoms of insomnia; reference category 'no clinically significant insomnia' at baseline, patient fixed effects, 228 patients, SE 0.646, not significant): 0.959
Change in ISI score, Visit 1 × subthreshold insomnia interaction coefficient (symptoms of insomnia; relative to 'no clinically significant insomnia', patient fixed effects, 228 patients, SE 0.901, p < 0.001): −3.308***
Change in ISI score, Visit 1 × clinical insomnia (moderate severity) interaction coefficient (symptoms of insomnia; relative to 'no clinically significant insomnia', patient fixed effects, 228 patients, SE 0.970, p < 0.001): −6.231***
Change in ISI score, Visit 1 × clinical insomnia (severe) interaction coefficient (symptoms of insomnia; relative to 'no clinically significant insomnia', patient fixed effects, 228 patients, SE 1.039, p < 0.001): −7.122***
Change in ISI score between Visit 0 and Visit 1, by initial assessment category (symptoms of insomnia; subsample Clinical insomnia (moderate severity), 70 patients, baseline mean 17.757, SE 0.726, p < 0.001): −5.271***
Change in ISI score between Visit 0 and Visit 1, by initial assessment category (symptoms of insomnia; subsample Clinical insomnia (severe), 43 patients, baseline mean 24.256, SE 0.823, p < 0.001): −6.163***
Change in ISI score between Visit 0 and Visit 1, by initial assessment category (symptoms of insomnia; subsample No clinically significant insomnia, 49 patients, baseline mean 3.857, SE 0.652, not significant): 0.959
Change in ISI score between Visit 0 and Visit 1, by initial assessment category (symptoms of insomnia; subsample Subthreshold insomnia, 66 patients, baseline mean 11.364, SE 0.631, p < 0.001): −2.349***
